Test results reported in US10815238B2, “Antimicrobial compounds and methods of making and using the same” (BIOVERSYS AG, priority 2013, dated 2020).

Each compound was assayed on Eschericia coli (E. coli) strain ATCC25922 (assay: Standard microdilution assay, MIC against E. coli ATCC25922). Details: Escherichia coli; E. coli strain ATCC25922, standard microdilution assay; cutoff 16 micrograms/mL; read-out: MIC E. Coli.
Type: cell-based
In short: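 MIC determined by broth microdilution following CLSI protocols, with reference strains run in parallel for quality control. Activity scored +/− at a cutoff of 16 micrograms/mL.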

SMILES | MIC [µg/mL]
C[C@H](N)CCCc1cc(OC(F)(F)F)c(F)c(-c2cc3cn(-c4ccc([C@H](C)NCC[C@H](C)NC(=N)N)cc4)c(=O)nc3[nH]2)c1 [Compound 224] | < 16
C[C@H](N)CCCc1cc(Cl)c(F)c(-c2cc3cn(-c4ccc([C@H](C)N[C@H](C)CCNC(=N)N)cc4)c(=O)nc3[nH]2)c1 [Compound 225] | < 16
C[C@H](N)CCCc1cc(-c2cc3cn(-c4ccc([C@H](C)N[C@H](C)CCNC(=N)N)cc4)c(=O)nc3[nH]2)cc(C(F)(F)F)c1 [Compound 226] | < 16
CC[C@H](NCCCNC(=N)N)c1ccc(-n2cc3cc(-c4cc(CCC[C@H](C)N)cc(OC(F)(F)F)c4F)[nH]c3nc2=O)cc1 [Compound 227] | < 16
C[C@H](N)CCCc1cc(OC(F)(F)F)c(F)c(-c2cc3cn(-c4ccc(CN[C@H](C)CCNC(=N)N)cc4)c(=O)nc3[nH]2)c1 [Compound 228] | < 16
C[C@H](N)CCCc1cc(Cl)c(F)c(-c2cc3cn(-c4ccc(C[C@@H](CCCN)NC(=N)N)cc4)c(=O)nc3[nH]2)c1 [Compound 229] | < 16
C[C@H](N)CCCc1cc(Cl)c(F)c(-c2cc3cn(-c4ccc(C[C@H](N)CCCNC(=N)N)cc4)c(=O)nc3[nH]2)c1 [Compound 230] | < 16
C[C@H](N)CCCc1cc(OC(F)(F)F)c(F)c(-c2cc3cn(-c4ccc(C[C@H](N)CCCNC(=N)N)cc4)c(=O)nc3[nH]2)c1 [Compound 231] | < 16
C[C@H](N)CCCc1cc(OC(F)(F)F)c(F)c(-c2cc3cn(-c4ccc([C@H](C)N[C@@H](C)CCNC(=N)N)cc4)c(=O)nc3[nH]2)c1 [Compound 232] | < 16
C[C@H](N)CCCc1cc(OC(F)(F)F)c(F)c(-c2cc3cn(-c4ccc([C@H](C)N[C@H](C)CCNC(=N)N)cc4)c(=O)nc3[nH]2)c1 [Compound 233] | < 16
C[C@H](N)CCCc1cc(OC(F)(F)F)c(F)c(-c2cc3cn(-c4ccc([C@H](N)CCCCNC(=N)N)cc4)c(=O)nc3[nH]2)c1 [Compound 234] | < 16
C[C@H](N)CCCc1cc(-c2cc3cn(-c4ccc([C@H](N)CCCCNC(=N)N)cc4)c(=O)nc3[nH]2)cc(C(F)(F)F)c1 [Compound 235] | < 16
C=C[C@H](CCN[C@@H](C)c1ccc(-n2cc3cc(-c4cc(CCC[C@H](C)N)cc(Cl)c4F)[nH]c3nc2=O)cc1)NC(=N)N [Compound 236] | < 16
C=C[C@H](CCN[C@@H](C)c1ccc(-n2cc3cc(-c4cc(CCC[C@H](C)N)cc(OC(F)(F)F)c4F)[nH]c3nc2=O)cc1)NC(=N)N [Compound 237] | < 16
C=C[C@H](CCNCc1ccc(-n2cc3cc(-c4cc(CCC[C@H](C)N)cc(OC(F)(F)F)c4F)[nH]c3nc2=O)cc1)NC(=N)N [Compound 238] | < 16
C[C@H](N)CCCc1cc(Cl)c(F)c(-c2cc3cn(-c4ccc([C@H](C)NCC[C@@H](CCCO)NC(=N)N)cc4)c(=O)nc3[nH]2)c1 [Compound 239] | < 16
C[C@H](N)CCCc1cc(OC(F)(F)F)c(F)c(-c2cc3cn(-c4ccc([C@H](C)NCC[C@@H](CCCO)NC(=N)N)cc4)c(=O)nc3[nH]2)c1 [Compound 240] | < 16
C[C@H](N)CCCc1cc(Cl)c(F)c(C#Cc2cn(-c3ccc([C@H](C)NCCCNC(=N)N)cc3)c(=O)nc2N)c1 [Compound 241] | < 16
C[C@H](NCCCNC(=N)N)c1ccc(-n2cc3cc(-c4cc(CCC[C@@H](N)CO)cc(C(F)(F)F)c4)[nH]c3nc2=O)cc1 [Compound 242] | < 16
C[C@H](NCCCNC(=N)N)c1ccc(-n2cc3cc(-c4cc(CCC[C@@H](N)CO)cc(OC(F)(F)F)c4F)[nH]c3nc2=O)cc1 [Compound 243] | < 16

SMILES | MIC [µg/mL]
C[C@H](N)CCCc1cc(Cl)c(F)c(-c2cc3cn(-c4ccc([C@H](C)NCC[C@H](CCO)NC(=N)N)cc4)c(=O)nc3[nH]2)c1 [Compound 244] | < 16
C[C@H](N)CCCc1cc(OC(F)(F)F)c(F)c(-c2cc3cn(-c4ccc([C@H](C)NCC[C@H](CCO)NC(=N)N)cc4)c(=O)nc3[nH]2)c1 [Compound 245] | < 16
C[C@H](N)CCCc1cc(Cl)c(F)c(-c2cc3c([nH]2)NC(=O)N(c2ccc([C@H](C)NCCCNC(=N)N)cc2)C3)c1 [Compound 246] | < 16
C[C@H](N)CCCc1cc(Cl)c(F)c(-c2cc3cn(-c4ccc([C@H](C)NCC[C@@H](CCO)NC(=N)N)cc4)c(=O)nc3[nH]2)c1 [Compound 247] | < 16
C[C@H](N)CCCc1cc(OC(F)(F)F)c(F)c(-c2cc3cn(-c4ccc([C@H](C)NCC[C@@H](CCO)NC(=N)N)cc4)c(=O)nc3[nH]2)c1 [Compound 248] | < 16
C[C@H](N)CCCc1cc(Cl)c(F)c(-c2cc3cn(-c4ccc(CN[C@H](CO)CCNC(=N)N)cc4)c(=O)nc3[nH]2)c1 [Compound 249] | < 16
C[C@H](N)CCCc1cc(OC(F)(F)F)c(F)c(-c2cc3cn(-c4ccc(CN[C@H](CO)CCNC(=N)N)cc4)c(=O)nc3[nH]2)c1 [Compound 250] | < 16
C=CC[C@H](CCN[C@@H](C)c1ccc(-n2cc3cc(-c4cc(CCC[C@H](C)N)cc(Cl)c4F)[nH]c3nc2=O)cc1)NC(=N)N [Compound 251] | < 16
C=CC[C@@H](CCN[C@@H](C)c1ccc(-n2cc3cc(-c4cc(CCC[C@H](C)N)cc(Cl)c4F)[nH]c3nc2=O)cc1)NC(=N)N [Compound 252] | < 16
C[C@H](N)CCCc1cc(Cl)c(F)c(-c2cc3cn(-c4ccc([C@H](N)C(=O)NCCNC(=N)N)cc4)c(=O)nc3[nH]2)c1 [Compound 253] | < 16
C[C@H](N)CCCc1cc(Cl)c(F)c(-c2cc3cn(-c4ccc([C@H](N)C(=O)NCCN)cc4)c(=O)nc3[nH]2)c1 [Compound 254] | < 16
C[C@H](N)CCCc1cc(OC(F)(F)F)c(F)c(-c2cc3cn(-c4ccc([C@H](N)C(=O)NCCNC(=N)N)cc4)c(=O)nc3[nH]2)c1 [Compound 255] | < 16
C[C@H](N)CCCc1cc(Cl)c(F)c(-c2cc3cn(-c4ccc([C@@H](N)C(=O)NCCNC(=N)N)cc4)c(=O)nc3[nH]2)c1 [Compound 256] | < 16
C[C@H](N)CCCc1cc(OC(F)(F)F)c(F)c(-c2cc3cn(-c4ccc([C@@H](N)C(=O)NCCNC(=N)N)cc4)c(=O)nc3[nH]2)c1 [Compound 257] | < 16
C[C@H](N)CCCc1cc(Cl)c(F)c(-c2cc3cn(-c4ccc([C@H](C)NCC[C@@H](CCc5ccccc5)NC(=N)N)cc4)c(=O)nc3[nH]2)c1 [Compound 258] | < 16
C[C@H](N)CCCc1cc(OC(F)(F)F)c(F)c(-c2cc3cn(-c4ccc([C@H](C)NCC[C@@H](CCc5ccccc5)NC(=N)N)cc4)c(=O)nc3[nH]2)c1 [Compound 259] | < 16
C=CC[C@H](CCN[C@@H](C)c1ccc(-n2cc3cc(-c4cc(CCC[C@H](C)N)cc(OC(F)(F)F)c4F)[nH]c3nc2=O)cc1)NC(=N)N [Compound 260] | < 16
C=CC[C@@H](CCN[C@@H](C)c1ccc(-n2cc3cc(-c4cc(CCC[C@H](C)N)cc(OC(F)(F)F)c4F)[nH]c3nc2=O)cc1)NC(=N)N [Compound 261] | < 16
C[C@H](N)CCCc1cc(Cl)c(F)c(-c2cc3cn(-c4ccc([C@H](C)NCC[C@H](CO)NC(=N)N)cc4)c(=O)nc3[nH]2)c1 [Compound 262] | < 16
C[C@H](N)CCCc1cc(OC(F)(F)F)c(F)c(-c2cc3cn(-c4ccc([C@H](C)NCC[C@H](CO)NC(=N)N)cc4)c(=O)nc3[nH]2)c1 [Compound 263] | < 16
